# Measurements reported in patent publication US8569379B2 (Teva Pharmaceutical Industries Ltd., priority 2010, dated 2013).
# Read-outs that look alike come from different tables or passages of the source.
# Key:
# [1] = system: alpha-synuclein over-expressing (mutants) mice (Thy1-aSyn); details: α-syn mutants receiving rasagiline; group mean, n = 19
# From the text: (§1) Transgenic mice overexpressing alpha-synuclein under the Thy1 promoter (Thy1-aSyn) have high levels of alpha-synuclein expression throughout the brain but no loss of nigrostriatal dopamine neurons up to 8 months. […] Overexpression of alpha-synuclein is sufficient to cause olfactory deficits in mice similar to that observed in patients with PD (2).
# (§2) The time periods that mice spent sniffing lemon and lime were compared. The testing parameters were percentage of time of sniffing lemon out of total time of sniffing and percentage of time of sniffing lime out of total time of sniffing.
# [2] = system: alpha-synuclein over-expressing (mutants) mice (Thy1-aSyn)
# From the text: as §1
# Odor detection threshold is the lowest concentration (dilution 10^−8; 10^−6; 10^−4 in the water) at which mice are able to detect a novel odor. Upon detection of a novel odor, mice will spend more time sniffing it. The detection threshold was measured as percentage of time sniffing novel odor out of total time of sniffing.
# [3] = system: Wild type (WT) mice
# From the text: (§3) The underlying principle was that if mice would spend less time sniffing the odor at T2 (second exposure to the odor) their short term olfactory memory is intact. The testing parameter was percentage of time of sniffing at T2, calculated as time of sniffing at T2 out of total time of sniffing at T1 (first exposure) & T2.
# [4] = system: alpha-synuclein over-expressing (mutants) mice (Thy1-aSyn); remark: listed apart in the source
# From the text: Transgenic mice overexpressing alpha-synuclein under the Thy1 promoter (Thy1-aSyn) have high levels of alpha-synuclein expression throughout the brain but no loss of nigrostriatal dopamine neurons up to 8 months. […] Overexpression of alpha-synuclein is sufficient to cause olfactory deficits in mice similar to that observed in patients with PD (2). […] In this experiment, lemon odor served as a familiar odor (F), and lime—as a novel odor (N) (FIG. 4A). Mice capable of discriminating between the odors will spend more time sniffing the new odor. The testing parameter was percentage of time of sniffing novel odor out of total time of sniffing.
# [5] = system: Wild type (WT) mice; details: WT mice receiving rasagiline; group mean, n = 18
# From the text: as §2
# [6] = system: Wild type (WT) mice; details: WT mice receiving rasagiline; group mean, n = 9
# From the text: The objective was to determine whether the odor discrimination deficit was specific to the olfactory function (FIG. 7A).
# The testing parameters was percentage of time exploring the novel object/odor out of total time of exploration.
# [7] = system: alpha-synuclein over-expressing (mutants) mice (Thy1-aSyn); remark: listed apart in the source
# From the text: as §1, with “(2). […] The objective was to determine whether the odor discrimination deficit was specific to the olfactory function (FIG. 7A). The testing parameters was percentage of time exploring the novel object/odor out of total time of exploration.” for “(2).”
# [8] = system: Wild type (WT) mice; details: for Time of exploration: novel object; for Time of exploration / % Time exploring novel object: WT mice receiving rasagiline, individual mice, Mean row = group mean (n = 9); for % Time exploring novel object: out of total time of the trial
# From the text: (§4) The testing parameters were percentage of time exploring the novel object out of total time of the trial.
# [9] = system: transgenic mouse models for the study of olfactory loss
# From the text: (Lane et al., “Development of transgenic mouse models for the study of human olfactory dysfunction”, Am J. Rhinol., 2005, May-June; 19(3):229-35.)
# [10] = system: Wild type (WT) mice; details: WT mice receiving rasagiline, group mean, n = 18
# From the text: In this experiment, lemon odor served as a familiar odor (F), and lime—as a novel odor (N) (FIG. 4A). Mice capable of discriminating between the odors will spend more time sniffing the new odor. The testing parameter was percentage of time of sniffing novel odor out of total time of sniffing.
# [11] = system: Wild type (WT) mice; details: strong intensity
# From the text: (§5) The experiment was further subdivided into two levels of odor intensity:
# (§6) Light intensity: two days of odor impregnation
# (§7) Strong intensity: seven days of odor impregnation
# (§8) The testing parameter was percentage of time of sniffing novel odor out of total time of sniffing.
# [12] = system: alpha-synuclein over-expressing (mutants) mice (Thy1-aSyn); details: α-syn mutants; in particular at the 1.5 min interval
# From the text: as §1, §3
# [13] = system: alpha-synuclein over-expressing (mutants) mice (Thy1-aSyn); remark: listed apart in the source
# From the text: as §1, §5, §6, §7, §8
# [14] = system: alpha-synuclein over-expressing (mutants) mice (Thy1-aSyn); remark: listed apart in the source
# From the text: as §1, §4
# [15] = non-social odors, N = lime (novel), α-syn mutants receiving rasagiline, group mean, n = 20
# [16] = α-syn mutants receiving rasagiline, group mean, n = 9
# [17] = non-social odors, N = lime (novel)
# [18] = strong social odors, α-syn mutants receiving rasagiline, group mean, n = 20
compound,measurement,setting,value
"C#CCN[C@@H]1CCc2ccccc21 [Rasagiline, R(+)-N-propargyl-1-aminoindan]",% Time sniffing Lime,[1],52.6%
same,Time of sniffing (s) Lemon,[1],6.1 s
same,Time of sniffing (s) Lime,[1],8.7 s
same,Time of sniffing (s) Total,[1],14.9 s
same,odor threshold (lowest odor dilution detected),"[2]; α-syn mutants with rasagiline, untreated mutants 10^−4, dilution in water",10^6
same,odor detection ability,"[2]; α-syn mutants, odor concentration 10^−6",improved the odor detection ability of α-syn mutants
same,short-term olfactory memory compared to WT-water,[3]; ITI of 2 min,reduced short-term olfactory memory compared to WT-water
same,effect on short term olfactory memory,[3]; in particular at the 1.5 min interval,positive effect on short term olfactory memory
same,Total time sniffing,"[4]; non-social odors lemon/lime, α-syn mutants receiving rasagiline, group mean, n = 20",14.8
same,Time Sniffing F,"[4]; non-social odors, F = lemon (familiar), α-syn mutants receiving rasagiline, group mean, n = 20",3.7
same,% time sniffing N,[4]; [15],70.2%
same,Time Sniffing N,[4]; [15],11.2
same,discrimination of two close non-social odors,"[4]; α-syn mutant mice, lemon (familiar) vs lime (novel)",improves discrimination of two close non-social odors
same,% Time sniffing Lemon,[5],52.9%
same,% Time sniffing Lime,[5],47.1%
same,Time of sniffing (s) Lemon,[5],25.9 s
same,Time of sniffing (s) Lime,[5],23.3 s
same,Time of sniffing (s) Total,[5],49.2 s
same,% Time exploring novel object,[6],96.2%
same,Time of Exploration (s) Familiar object,[6],3.0 s
same,Time of Exploration (s) Novel object,[6],85.0 s
same,Time of Exploration (s) Total,[6],88.0 s
same,novel object/odor discrimination ability,[7]; α-syn mutants,improves the discrimination ability of the mutants to substantially WT levels
same,% Time exploring novel object,[7]; [16],92.2%
same,Time of Exploration (s) Familiar object,[7]; [16],3.6 s
same,Time of Exploration (s) Novel object,[7]; [16],48.7 s
same,Time of Exploration (s) Total,[7]; [16],52.4 s
same,effect on novel object exploration,[8]; WT mice,no effect on novel object exploration
same,Time of exploration,[8]; listed as Rasagilina,100.0 s
same,Time of exploration,[8]; listed as Rasagilins,115.1 s
same,% Time exploring novel object,[8]; listed as Rasagilina,33.3%
same,% Time exploring novel object,[8]; listed as Rasagilins,38.4%
same,treating the symptoms of olfactory dysfunction,[9]; each of two transgenic mouse models,effective in treating the symptoms of olfactory dysfunction
same,functional decline,[9]; transgenic mouse models,effective in reducing the functional decline
same,rate of progression of olfactory dysfunction,[9]; transgenic mouse models,effective in reducing the rate of progression of olfactory dysfunction
same,Total time sniffing,[10]; non-social odors lemon/lime,42.5
same,Time Sniffing F,"[10]; non-social odors, F = lemon (familiar)",11.9
same,% time sniffing N,[10]; [17],72.1%
same,Time Sniffing N,[10]; [17],30.6
same,discrimination of strong social odor,[11],improves discrimination of strong social odor
same,effect on short term olfactory memory,[12],positive effect on short term olfactory memory
same,Time Sniffing F,[13]; [18],3.1
same,Total time sniffing,[13]; [18],12.4
same,discrimination of light social odor,"[13]; α-syn mutants, light intensity",improves discrimination of light social odor
same,discrimination of strong social odor,"[13]; α-syn mutants, strong intensity",improves discrimination of strong social odor
same,Time of exploration,"[14]; novel object, α-syn mutants receiving rasagiline, group mean, n = 11",79.3 s
same,% Time exploring novel object,"[14]; out of total time of the trial, α-syn mutants receiving rasagiline, group mean, n = 11",26.4%
same,effect on novel object exploration,[14]; α-syn mutants,no effect on novel object exploration
